In patent US9951467B2, “Bacteriostatically treating method” (JNC CORPORATION, priority 2009, dated 2018):

Tests used:
[1] = test system: S. aureus; assay: Antibacterial test on fiber samples immersed in polycationic polypeptide aqueous solution, bactericidal activity value (L); format: cell-based, Staphylococcus aureus
Excerpt: (§1) Here, the bactericidal activity value (L) is defined by the following equation (for details, see the Approval Standard for Antibacterial and Deodorant Textile Products set forth by the Japan Textile Evaluation Technology Council (JTETC)). When this value (L) is ≥0, the textile product is considered to have an antibacterial effect, and it becomes eligible to be approved as a bacteriostatically treated textile product (with SEK Mark).
(§2) L (bactericidal activity value)=(Ma−Mc)
(§3) Ma: Average common logarithm value of the viable cell count or the ATP amount, which was measured for three samples immediately after the inoculation thereof onto a standard cloth.
(§4) Mc: Average common logarithm value of the viable cell count or the ATP amount, which was measured for three samples after 18 hours of culturing on an antibacterially treated cloth.
(§5) Threads, each of which was cut into 0.4 g in weight, were used as the fiber samples. Into a polycationic polypeptide aqueous solution of a prescribed concentration which was heated to a prescribed temperature (25, 50 or 75° C.), the samples were immersed for a prescribed period of time. The followings were used as the polycationic polypeptide.
(§6) Then, the fiber samples were washed by a simple method which was modified from the washing method according to JIS L-0217 103 (“Antimicrobial Agent of SENKA Corporation”; Everything about antimicrobial agents, p. 595-598, 1997, Sen-i Co., Ltd.), and the thus washed samples were dried in the air. The washing method was carried out by the following steps.
(§7) (1) Water having a temperature of 40° C. is filled into the washer water tank up to the highest line for the water level. To this water, “JAFET standard detergent (polyoxyethylene alkyl ether)” is added at a ratio of 40 mL of the detergent to 30 L of water to obtain washing solution.
(§8) (2) The fiber samples are placed into the washing solution in such a manner that the bath ratio (the weight ratio of the fibers and the washing solution at the time of washing of the fibers after the immersion) becomes 1:30, and the washing machine is operated for 25 minutes.
(§9) (3) The fiber samples are dehydrated by a dehydrator. The dehydration is carried out for 7 to 8 minutes.
(§10) (4) The washing solution is replaced with fresh water at room temperature, and rinsing and washing are performed in the filled water for 4 minutes at the same bath ratio.
(§11) (5) The fiber samples are dehydrated by a dehydrator. The dehydration is carried out for 7 to 8 minutes.
(§12) (6) Rinsing and washing are performed with running water for 2 minutes.
(§13) (7) Considering the above (1) to (6) as 5 washings, these steps are repeated twice to have the fiber samples be “washed 10 times”.
(§14) (8) The fiber samples are dehydrated by a dehydrator.
(§15) A bacterial suspension which was cultured in normal broth at 30° C. for 18 hours was mixed and diluted to prepare a diluted bacterial suspension having a concentration of 10^6 cells/mL. Placed into a vial was 0.4 g of fiber sample which was not washed or washed 10 times. Thereto inoculated was 400 μL of the diluted bacterial suspension, which was then allowed to soak into the sample, and the sample was incubated at 37° C. After 18 hours, 20 mL of physiological saline was added to the vial and the resultant was stirred using a mixer (5 seconds×5 times) to suspend the bacterial cells. The thus obtained suspension was diluted as appropriate, and the number of bacterium was counted to calculate the bactericidal activity value (L) based on the aforementioned equation. Here, the tested bacteria were E. coli and S. aureus.

[2] = test system: E. coli; assay: as above; format: cell-based, Escherichia coli
Excerpt: as §1, §2, §3, §4, §5, §6, §7, §8, §9, §10, §11, §12, §13, §14, §15

[3] = Acryl 100% thread, immersion 25° C., 2 hours
[4] = Acryl 100% thread, immersion 25° C., 3 hours
[5] = Acryl 100% thread, immersion 25° C., 24 hours
[6] = Cotton 100% thread, immersion 50° C., 2 hours
[7] = Cotton 100% thread, immersion 50° C., 3 hours
[8] = Cotton 100% thread, immersion 50° C., 24 hours
[9] = Cotton 100% thread, immersion 75° C., 2 hours
[10] = Cotton 100% thread, immersion 75° C., 3 hours
[11] = Cotton 100% thread, immersion 75° C., 24 hours
[12] = Hemp 100% thread, immersion 25° C., 2 hours
[13] = Hemp 100% thread, immersion 25° C., 3 hours
[14] = Hemp 100% thread, immersion 25° C., 24 hours
[15] = Nylon 100% thread, immersion 25° C., 2 hours
[16] = Nylon 100% thread, immersion 25° C., 3 hours
[17] = Nylon 100% thread, immersion 25° C., 24 hours
[18] = Polyester 100% thread, immersion 25° C., 2 hours
[19] = Polyester 100% thread, immersion 25° C., 3 hours
[20] = Polyester 100% thread, immersion 25° C., 24 hours
[21] = Rayon 100% thread, immersion 25° C., 2 hours
[22] = Rayon 100% thread, immersion 25° C., 3 hours
[23] = Rayon 100% thread, immersion 25° C., 24 hours
[24] = Wool 100% thread, immersion 50° C., 2 hours
[25] = Wool 100% thread, immersion 50° C., 3 hours
[26] = Wool 100% thread, immersion 50° C., 24 hours
[27] = Wool 100% thread, immersion 75° C., 2 hours
[28] = Wool 100% thread, immersion 75° C., 3 hours
[29] = Wool 100% thread, immersion 75° C., 24 hours
[30] = cotton thread and wool, immersion 50° C., 2 hours or more (text summary of Table 1)
[31] = threads of various materials, immersion 25° C., 2 hours or more (text summary of Table 2)

ϵ-polylysine [ε-polylysine]
2,500 ppm: ε-polylysine concentration at which L ≥ 0 was attained, E. coli [2, 6] | ε-polylysine concentration at which L ≥ 0 was attained, E. coli [2, 7] | ε-polylysine concentration at which L ≥ 0 was attained, E. coli [2, 8] | ε-polylysine concentration at which L ≥ 0 was attained, E. coli [2, 9] | ε-polylysine concentration at which L ≥ 0 was attained, E. coli [2, 10] | ε-polylysine concentration at which L ≥ 0 was attained, E. coli [2, 11] | ε-polylysine concentration at which L ≥ 0 was attained, E. coli [2, 24] | ε-polylysine concentration at which L ≥ 0 was attained, E. coli [2, 25] | ε-polylysine concentration at which L ≥ 0 was attained, E. coli [2, 26] | ε-polylysine concentration at which L ≥ 0 was attained, E. coli [2, 27] | ε-polylysine concentration at which L ≥ 0 was attained, E. coli [2, 28] | ε-polylysine concentration at which L ≥ 0 was attained, E. coli [2, 29] | concentration of ϵ-polylysine aqueous solution at which bacteriostatic effect against E. coli was attained [2, 30]
250 ppm: ε-polylysine concentration at which L ≥ 0 was attained, S. aureus [1, 5] | ε-polylysine concentration at which L ≥ 0 was attained, S. aureus [1, 14] | ε-polylysine concentration at which L ≥ 0 was attained, S. aureus [1, 17] | ε-polylysine concentration at which L ≥ 0 was attained, S. aureus [1, 20] | ε-polylysine concentration at which L ≥ 0 was attained, S. aureus [1, 23] | ε-polylysine concentration at which L ≥ 0 was attained, E. coli [2, 5] | ε-polylysine concentration at which L ≥ 0 was attained, E. coli [2, 17] | ε-polylysine concentration at which L ≥ 0 was attained, E. coli [2, 23]
500 ppm: ε-polylysine concentration at which L ≥ 0 was attained, S. aureus [1, 3] | ε-polylysine concentration at which L ≥ 0 was attained, S. aureus [1, 4] | ε-polylysine concentration at which L ≥ 0 was attained, S. aureus [1, 6] | ε-polylysine concentration at which L ≥ 0 was attained, S. aureus [1, 7] | ε-polylysine concentration at which L ≥ 0 was attained, S. aureus [1, 8] | ε-polylysine concentration at which L ≥ 0 was attained, S. aureus [1, 9] | ε-polylysine concentration at which L ≥ 0 was attained, S. aureus [1, 10] | ε-polylysine concentration at which L ≥ 0 was attained, S. aureus [1, 11] | ε-polylysine concentration at which L ≥ 0 was attained, S. aureus [1, 12] | ε-polylysine concentration at which L ≥ 0 was attained, S. aureus [1, 13] | ε-polylysine concentration at which L ≥ 0 was attained, S. aureus [1, 15] | ε-polylysine concentration at which L ≥ 0 was attained, S. aureus [1, 16] | ε-polylysine concentration at which L ≥ 0 was attained, S. aureus [1, 18] | ε-polylysine concentration at which L ≥ 0 was attained, S. aureus [1, 19] | ε-polylysine concentration at which L ≥ 0 was attained, S. aureus [1, 21] | ε-polylysine concentration at which L ≥ 0 was attained, S. aureus [1, 22] | ε-polylysine concentration at which L ≥ 0 was attained, S. aureus [1, 24] | ε-polylysine concentration at which L ≥ 0 was attained, S. aureus [1, 25] | ε-polylysine concentration at which L ≥ 0 was attained, S. aureus [1, 26] | ε-polylysine concentration at which L ≥ 0 was attained, S. aureus [1, 27] | ε-polylysine concentration at which L ≥ 0 was attained, S. aureus [1, 28] | ε-polylysine concentration at which L ≥ 0 was attained, S. aureus [1, 29] | concentration of ϵ-polylysine aqueous solution at which bacteriostatic effect against S. aureus was attained [1, 30] | concentration of ϵ-polylysine aqueous solution at which bacteriostatic effect against S. aureus was attained [1, 31] | ε-polylysine concentration at which L ≥ 0 was attained, E. coli [2, 3] | ε-polylysine concentration at which L ≥ 0 was attained, E. coli [2, 4] | ε-polylysine concentration at which L ≥ 0 was attained, E. coli [2, 12] | ε-polylysine concentration at which L ≥ 0 was attained, E. coli [2, 13] | ε-polylysine concentration at which L ≥ 0 was attained, E. coli [2, 15] | ε-polylysine concentration at which L ≥ 0 was attained, E. coli [2, 16] | ε-polylysine concentration at which L ≥ 0 was attained, E. coli [2, 18] | ε-polylysine concentration at which L ≥ 0 was attained, E. coli [2, 19] | ε-polylysine concentration at which L ≥ 0 was attained, E. coli [2, 21] | ε-polylysine concentration at which L ≥ 0 was attained, E. coli [2, 22] | concentration of ϵ-polylysine aqueous solution at which bacteriostatic effect against E. coli was attained [2, 31]
800 ppm: ε-polylysine concentration at which L ≥ 0 was attained, E. coli [2, 14] | ε-polylysine concentration at which L ≥ 0 was attained, E. coli [2, 20]
